In patent US20120184006A1, “Reductase Enzymes” (UTAH STATE UNIVERSITY, priority 2011, published 2012):

Key:
[1] = molecular target: T1, fatty acyl-CoA reductase (FACoAR) from M. aquaeolei VT8 (Marinobacter nauticus (Marinobacter aquaeolei), UniProt A1U3L3); assay: Continuous spectrophotometric NADPH assay (decrease of NADPH at 340 nm); format: biochemical; details: for Rate of Reaction (nmol NADP^+ min^−1 mg proten^−1): 60 μm of the respective aldehyde as substrate; for % Specific Activity of Decanal: percent of the specific activity of decanal, 60 μm aldehyde
T1 sequence (A1U3L3 1-661): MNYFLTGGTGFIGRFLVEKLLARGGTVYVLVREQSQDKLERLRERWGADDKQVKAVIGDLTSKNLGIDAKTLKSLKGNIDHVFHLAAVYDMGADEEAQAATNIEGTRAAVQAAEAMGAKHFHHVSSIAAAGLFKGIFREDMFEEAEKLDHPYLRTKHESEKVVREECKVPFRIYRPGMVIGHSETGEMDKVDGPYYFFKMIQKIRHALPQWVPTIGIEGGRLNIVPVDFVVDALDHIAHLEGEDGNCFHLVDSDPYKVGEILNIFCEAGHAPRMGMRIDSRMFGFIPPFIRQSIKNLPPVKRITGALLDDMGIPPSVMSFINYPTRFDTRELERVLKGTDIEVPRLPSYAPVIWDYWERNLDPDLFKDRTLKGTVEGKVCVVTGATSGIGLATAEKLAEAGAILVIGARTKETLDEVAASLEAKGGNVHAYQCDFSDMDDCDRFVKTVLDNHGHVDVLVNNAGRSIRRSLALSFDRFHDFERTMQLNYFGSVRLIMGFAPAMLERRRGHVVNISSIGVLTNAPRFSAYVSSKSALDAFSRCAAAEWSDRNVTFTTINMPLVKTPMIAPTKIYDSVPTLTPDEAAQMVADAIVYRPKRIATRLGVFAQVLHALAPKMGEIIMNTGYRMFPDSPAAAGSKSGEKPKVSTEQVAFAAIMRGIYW
Method: (§1) All assays were conducted in a total volume of 1 mL. A buffer containing 50 mM NaCl, 20 mM Tris-HCl pH 7.0, and 0.5 mg/mL BSA was prepared along with a 1 mM stock of aldehyde dissolved in dimethyl sulfoxide (DMSO) or a 0.1 mM stock of the acyl-CoA, and […] NADPH. All components including protein were degassed in sealed vials and placed under an argon atmosphere. NADPH was degassed as the solid prior to the addition of degassed buffer. Each assay was conducted by adding 75 μL of the NADPH stock, 58 μg protein for acyl-CoA assays or 15 μg protein for aldehyde assays, varying concentrations of aldehyde or acyl-CoA and buffer to bring the final volume to 1 mL. Each sample was continuously monitored for the decrease of NADPH at 340 nm on a Varian 50 Bio UV-visible spectrophotometer (Walnut Creek, Calif.). Initial rates were calculated in Excel using the linear initial rates of reaction obtained from the spectrophotometric assays by obtaining the slope from the best. In line and calculating nmol of NADPH oxidized per second. (Microsoft, Redmond, Wash.). These initial rates were used to calculate Km and Vmax values using the Igor Pro software package (Wavemetrics, Lake Oswego, Oreg.) fitting the initial rates to the Hill equation (31). NADPH specific activity assays were conducted identically as described above using a fixed 60 μM concentration of the various aldehyde substrates or 6 μM of the various acyl-CoA substrates.

[2] = molecular target: T1, fatty acyl-CoA reductase (FACoAR) from M. aquaeolei VT8; assay: Continuous spectrophotometric DTNB assay (release of free CoA); format: biochemical; details: for Rate of Reaction (nmol NTB^2− min^−1 mg protein^−1): 6 μM of the respective CoA as substrate; for % Specific Activity of Palmitoyl-CoA: percent of the specific activity of palmitoyl-CoA, 6 μM substrate
Method: Buffers and solutions were prepared as described above for NADPH assays. Each assay was conducted by adding 75 μL of the 2 mg/mL NADPH stock solution in buffer, 58 μg of protein, and 10 μL of a 10 mg/mL solution of DTNB in DMSO, varying concentrations of acyl-CoA and buffer to bring the volume to 1 mL. Reduction of acyl-CoA substrate was monitored by following the increase of the 2-nitro-5-thiobenzoate (NTB^2−) dianion concentration at 412 nm. […] These initial rates were used to calculate the apparent K, and Vmax values using the Igor Pro (Wavemetrics, Lake Oswego, Oreg.) software package fitting the initial rates to the Hill equation (Equation 1) where v is the initial velocity, Vmax is the maximum calculated velocity, [S]^n is the concentration of substrate and n is the Hill coefficient, K0.5^n is the approximation of Km or the approximate substrate concentration at which half of Vmax is obtained at a specific value of the Hill coefficient n. In the case of enzyme inhibition, a modified version of the Hill equation allowing for cooperative inhibition (Equation 2) where all of the coefficients are defined as for the Hill equation and the additional [i]^n is the concentration of inhibitor and n is the Hill coefficient. The Ki^n is the approximate concentration of inhibitor it takes to double the K0.5 at a specific value of the Hill coefficient n.

[3] = test system: FALDR (fatty aldehyde reductase) from M. aquaeolei VT8; details: previously tested enzyme, aldehyde substrate; cited from earlier work
M. aquaeolei VT8 FACoAR = assay: Addition of detergents and reducing agents to the FACoAR kinetic assay; format: biochemical, Marinobacter aquaeolei VT8; details: varying concentrations (isopropanol 5%)
Description: As part of our characterization, we attempted to alleviate the sigmoidal response of activity to substrate concentration by the addition of reducing agents and detergents. In the case of another type of acyl-CoA reductase, HMG-CoA reductase, the addition of reducing agents and/or detergents could limit, but not eliminate the sigmoidal kinetics related to cooperative binding. […] This seems to indicate the potential of some inter- or intra-protein interaction that is necessary for the activity to occur. To further investigate this possibility, the protein was analyzed by size exclusion chromatography to determine the native weight of the protein.

[4] = substrate: CCCCCCCCCCCCCCCC(=O)SCCNC(=O)CCNC(=O)[C@H](O)C(C)(C)COP(=O)(O)OP(=O)(O)OC[C@H]1O[C@@H](n2cnc3c(N)ncnc32)[C@H](O)[C@@H]1OP(=O)(O)O; assay: Continuous spectrophotometric DTNB assay (release of free CoA); format: biochemical, Marinobacter aquaeolei VT8
[5] = substrate: CCCC/C=C\CCCCCCCCCC=O; assay: Continuous spectrophotometric NADPH assay (decrease of NADPH at 340 nm); format: biochemical, Marinobacter aquaeolei VT8; details: pH 7.0
Method: as §1

[6] = substrate: CCCCCCCCCCCCCCCC(=O)SCCNC(=O)CCNC(=O)[C@H](O)C(C)(C)COP(=O)(O)OP(=O)(O)OC[C@H]1O[C@@H](n2cnc3c(N)ncnc32)[C@H](O)[C@@H]1OP(=O)(O)O; assay: as above; format: biochemical, Marinobacter aquaeolei VT8; details: other: FIG. 5, NADPH assay, acyl-CoA substrate; pH 7.0
Method: as §1

[7] = running text b50, fatty aldehyde reduction
[8] = other: FIG. 6, NADPH assay, aldehyde substrate

O=Cc1ccc2ccccc2c1 [2-Naphthaldehyde]
Rate of Reaction (nmol NADP^+ min^−1 mg proten^−1) [1]: 5280 ± 10 nmol NADP^+ min^−1 mg proten^−1 | % Specific Activity of Decanal [1]: 3%

CC=O [Acetaldehyde]
Rate of Reaction (nmol NADP^+ min^−1 mg proten^−1) [1]: 54 ± 6.0 nmol NADP^+ min^−1 mg proten^−1 | % Specific Activity of Decanal [1]: <1%

CCCCC/C=C\C/C=C\C/C=C\C/C=C\CCCC(=O)SCCNC(=O)CCNC(=O)[C@H](O)C(C)(C)COP(=O)(O)OP(=O)(O)OC[C@H]1O[C@@H](n2cnc3c(N)ncnc32)[C@H](O)[C@@H]1OP(=O)(O)O [Arachidonoyl-CoA]
Rate of Reaction (nmol NTB^2− min^−1 mg protein^−1) [2]: 50.7 ± 3.66 nmol NTB^2− min^−1 mg protein^−1 | % Specific Activity of Palmitoyl-CoA [2]: 93%

CCCC/C=C\CCCCCCCCCC=O [Cis-11-hexadecenal]
Rate of Reaction (nmol NADP^+ min^−1 mg proten^−1) [1]: 9910 ± 600 nmol NADP^+ min^−1 mg proten^−1 | n (Hill coefficient) ([1]; FIG. 6, NADPH assay, aldehyde substrate): 2±0.8 | Km ([1]; fatty aldehyde reduction, read-out: Km (Hill equation)): 25 µM | % Specific Activity of Decanal [1]: 63% | Vmax [1, 7]: ~10 µmol/min/mg | cooperativity n [1, 7]: ~2 | Km [3]: 177 µM | Vmax [3]: approximately 60 nmols min^−1 mg^−1

CCCCCCCCCC=O [Decanal]
Rate of Reaction (nmol NADP^+ min^−1 mg proten^−1) [1]: 15800 ± 860 nmol NADP^+ min^−1 mg proten^−1 | % Specific Activity of Decanal [1]: 100%

CCCCCCCCCCCC=O [Dodecanal]
Rate of Reaction (nmol NADP^+ min^−1 mg proten^−1) [1]: 11700 ± 250 nmol NADP^+ min^−1 mg proten^−1 | % Specific Activity of Decanal [1]: 74%

CCCCCC=O [Hexanal]
Rate of Reaction (nmol NADP^+ min^−1 mg proten^−1) [1]: 1540 ± 30.0 nmol NADP^+ min^−1 mg proten^−1 | % Specific Activity of Decanal [1]: 10%

CCCCCCCCCCCC(=O)SCCNC(=O)CCNC(=O)[C@H](O)C(C)(C)COP(=O)(O)OP(=O)(O)OC[C@H]1O[C@@H](n2cnc3c(N)ncnc32)[C@H](O)[C@@H]1OP(=O)(O)O [Lauroyl-CoA]
Rate of Reaction (nmol NTB^2− min^−1 mg protein^−1) [2]: 44.0 ± 6.3 nmol NTB^2− min^−1 mg protein^−1 | % Specific Activity of Palmitoyl-CoA [2]: 80%

CCCCCCCCCCCCCC(=O)SCCNC(=O)CCNC(=O)[C@H](O)C(C)(C)COP(=O)(O)OP(=O)(O)OC[C@H]1O[C@@H](n2cnc3c(N)ncnc32)[C@H](O)[C@@H]1OP(=O)(O)O [Myristoyl-CoA]
Rate of Reaction (nmol NTB^2− min^−1 mg protein^−1) [2]: 34.1 ± 2.1 nmol NTB^2− min^−1 mg protein^−1 | % Specific Activity of Palmitoyl-CoA [2]: 58%

CCCCCCCC=O [Octanal]
Rate of Reaction (nmol NADP^+ min^−1 mg proten^−1) [1]: 5200 ± 1500 nmol NADP^+ min^−1 mg proten^−1 | % Specific Activity of Decanal [1]: 33%

CCCCCCCC(=O)SCCNC(=O)CCNC(=O)[C@H](O)C(C)(C)COP(=O)(O)OP(=O)(O)OC[C@H]1O[C@@H](n2cnc3c(N)ncnc32)[C@H](O)[C@@H]1OP(=O)(O)O [Octanoyl-CoA]
Rate of Reaction (nmol NTB^2− min^−1 mg protein^−1) [2]: 18.8 ± 0.83 nmol NTB^2− min^−1 mg protein^−1 | % Specific Activity of Palmitoyl-CoA [2]: 34%

CCCCCCCC/C=C\CCCCCCCC(=O)SCCNC(=O)CCNC(=O)[C@H](O)C(C)(C)COP(=O)(O)OP(=O)(O)OC[C@H]1O[C@@H](n2cnc3c(N)ncnc32)[C@H](O)[C@@H]1OP(=O)(O)O [Oleyl-CoA]
Rate of Reaction (nmol NTB^2− min^−1 mg protein^−1) [2]: 41.5 ± 3.1 nmol NTB^2− min^−1 mg protein^−1 | % Specific Activity of Palmitoyl-CoA [2]: 76%

CCC=O [Propanal]
Rate of Reaction (nmol NADP^+ min^−1 mg proten^−1) [1]: 43 ± 6.0 nmol NADP^+ min^−1 mg proten^−1 | % Specific Activity of Decanal [1]: <1%

CCCCCCCCCCCCCCCCCC(=O)SCCNC(=O)CCNC(=O)[C@H](O)C(C)(C)COP(=O)(O)OP(=O)(O)OC[C@H]1O[C@@H](n2cnc3c(N)ncnc32)[C@H](O)[C@@H]1OP(=O)(O)O [Stearoyl-CoA]
Rate of Reaction (nmol NTB^2− min^−1 mg protein^−1) [2]: 37.6 ± 3.5 nmol NTB^2− min^−1 mg protein^−1 | % Specific Activity of Palmitoyl-CoA [2]: 69%

CC(C)O [isopropanol]
effect on FACoAR activity (M. aquaeolei VT8 FACoAR): inhibited activity

OCCS [β-mercaptoethanol]
effect on FACoAR activity (M. aquaeolei VT8 FACoAR): inhibited activity

Triton X-100
effect on FACoAR activity (M. aquaeolei VT8 FACoAR): inhibited activity

B1: fatty acyl-CoA reductase (FACoAR) from M. aquaeolei VT8 (Marinobacter nauticus VT8) (protein)
chain: MNYFLTGGTGFIGRFLVEKLLARGGTVYVLVREQSQDKLERLRERWGADDKQVKAVIGDLTSKNLGIDAKTLKSLKGNIDHVFHLAAVYDMGADEEAQAATNIEGTRAAVQAAEAMGAKHFHHVSSIAAAGLFKGIFREDMFEEAEKLDHPYLRTKHESEKVVREECKVPFRIYRPGMVIGHSETGEMDKVDGPYYFFKMIQKIRHALPQWVPTIGIEGGRLNIVPVDFVVDALDHIAHLEGEDGNCFHLVDSDPYKVGEILNIFCEAGHAPRMGMRIDSRMFGFIPPFIRQSIKNLPPVKRITGALLDDMGIPPSVMSFINYPTRFDTRELERVLKGTDIEVPRLPSYAPVIWDYWERNLDPDLFKDRTLKGTVEGKVCVVTGATSGIGLATAEKLAEAGAILVIGARTKETLDEVAASLEAKGGNVHAYQCDFSDMDDCDRFVKTVLDNHGHVDVLVNNAGRSIRRSLALSFDRFHDFERTMQLNYFGSVRLIMGFAPAMLERRRGHVVNISSIGVLTNAPRFSAYVSSKSALDAFSRCAAAEWSDRNVTFTTINMPLVKTPMIAPTKIYDSVPTLTPDEAAQMVADAIVYRPKRIATRLGVFAQVLHALAPKMGEIIMNTGYRMFPDSPAAAGSKSGEKPKVSTEQVAFAAIMRGIYW
K0.5 ([4]; acyl-CoA reduction, data of both DTNB and NADPH assays): 4 µM | Km ([4]; other: FIG. 5, DTNB assay, Hill fit, substrate): 4 ± 0.3 µM | K0.5 ([5]; fatty aldehyde reduction): 25 µM | Km [5, 8]: 48 ± 7 µM | Vmax [5, 8]: 7.7±0.6 μmol min^−1 mg of protein^−1 | Km [6]: 4.0 ± 0.2 µM
